Data: paper PMC3069973, “A Fungal Metabolite Asperparaline A Strongly and Selectively Blocks Insect Nicotinic Acetylcholine Receptors: The First Report on the Mode of Action” (PLoS ONE, 2011)

Assays:
[1] = molecular target: T1, L-glutamate-gated chloride channel (native, silkworm larval brain neurons, subunits not identified) (Bombyx mori, UniProt V9P9S1); assay: whole-cell patch-clamp, agonist-evoked current at […] (stated to be close to EC50); assay type: cell-based
T1 construct: native receptors in cultured larval brain neurons
T1 sequence (V9P9S1 25-446): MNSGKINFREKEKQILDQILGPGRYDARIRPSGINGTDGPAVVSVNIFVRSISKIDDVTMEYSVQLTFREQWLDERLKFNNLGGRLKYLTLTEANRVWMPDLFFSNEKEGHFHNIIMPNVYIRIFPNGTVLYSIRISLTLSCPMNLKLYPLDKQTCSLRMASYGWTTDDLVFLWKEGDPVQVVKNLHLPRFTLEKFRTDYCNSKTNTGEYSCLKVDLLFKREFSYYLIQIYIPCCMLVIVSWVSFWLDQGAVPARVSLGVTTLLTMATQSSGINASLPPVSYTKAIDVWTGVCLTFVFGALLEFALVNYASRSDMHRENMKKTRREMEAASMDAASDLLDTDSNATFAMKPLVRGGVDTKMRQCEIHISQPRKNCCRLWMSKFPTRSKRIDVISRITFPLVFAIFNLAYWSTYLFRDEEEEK

[2] = tested on: T2, nicotinic acetylcholine receptor (native nAChRs of silkworm larval brain neurons, subunits not identified); assay: whole-cell patch-clamp, agonist concentration-response; assay type: cell-based, Bombyx mori
T2 construct: native receptors in cultured larval brain neurons

[3] = tested on: T2, nicotinic acetylcholine receptor (native nAChRs of silkworm larval brain neurons, subunits not identified); assay: whole-cell patch-clamp, block of peak ACh-induced current (slowly desensitizing current IC50 […]); assay type: cell-based, Bombyx mori
[4] = molecular target: T3, α3β4 nicotinic acetylcholine receptor (Gallus gallus, UniProt P09481+P26153); assay: two-electrode voltage-clamp, weak block:[…] reduction of the ACh response at […]; assay type: cell-based
T3 construct: gene CHRNA3; chicken α3β4 nAChR expressed in Xenopus laevis oocytes; with nAChR β4 subunit
T3 sequence (P09481 23-496): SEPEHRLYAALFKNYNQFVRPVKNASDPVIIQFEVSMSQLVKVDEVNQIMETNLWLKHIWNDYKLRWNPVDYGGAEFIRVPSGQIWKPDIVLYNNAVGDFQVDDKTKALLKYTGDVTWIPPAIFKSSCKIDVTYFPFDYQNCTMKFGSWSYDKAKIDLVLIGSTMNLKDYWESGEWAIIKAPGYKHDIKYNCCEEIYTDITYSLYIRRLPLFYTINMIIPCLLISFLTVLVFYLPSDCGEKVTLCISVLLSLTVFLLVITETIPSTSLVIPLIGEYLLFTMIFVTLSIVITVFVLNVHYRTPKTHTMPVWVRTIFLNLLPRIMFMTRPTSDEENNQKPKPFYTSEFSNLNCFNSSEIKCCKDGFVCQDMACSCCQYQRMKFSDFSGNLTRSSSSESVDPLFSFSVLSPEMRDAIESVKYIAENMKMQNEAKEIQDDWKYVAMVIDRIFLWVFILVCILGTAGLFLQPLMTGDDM
T3 sequence (P26153 4-470): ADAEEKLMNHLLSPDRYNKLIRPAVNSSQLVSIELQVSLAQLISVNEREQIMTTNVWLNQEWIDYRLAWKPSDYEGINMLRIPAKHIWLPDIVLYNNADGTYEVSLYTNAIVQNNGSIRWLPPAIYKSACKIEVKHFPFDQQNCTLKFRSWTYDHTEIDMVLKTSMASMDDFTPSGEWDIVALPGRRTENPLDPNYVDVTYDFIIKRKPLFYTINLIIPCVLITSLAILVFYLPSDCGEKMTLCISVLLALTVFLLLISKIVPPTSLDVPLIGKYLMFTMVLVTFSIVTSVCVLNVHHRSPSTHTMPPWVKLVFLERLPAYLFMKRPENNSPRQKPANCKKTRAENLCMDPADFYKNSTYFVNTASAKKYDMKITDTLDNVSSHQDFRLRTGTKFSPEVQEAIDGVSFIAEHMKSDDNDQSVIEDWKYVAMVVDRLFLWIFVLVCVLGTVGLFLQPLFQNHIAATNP

## N[C@@H](CCC(=O)O)C(=O)O [L-glutamate]
[1]
  EC50: ~ 30 µM

## C[C@H]1CCN2C[C@]34C[C@]5(CC(=O)N(C)C5=O)C(C)(C)[C@@H]3C[C@]12C(=O)N4C [asperparaline A]
[3]
  IC50: 0.0202 µM
[4]
  inhibition at 10 µM: 33.4%
